Results published in patent US20220363727A1, “ANTIBACTERIAL PEPTIDE DERIVED FROM ERYTHROCULTER ILISHAEFORMIS AND USE THEREOF” (SOOCHOW UNIVERSITY, priority 2020, published 2022).
≈ marks a conversion by molar mass, not a printed value. Like-named read-outs stand apart in the source and are kept apart here. Bridge positions count the residues as written; N and C are the ends. Ends that are not written are not given here.

Experiments:
Assay type in all cases: cell-based
Vibrio cholerae = assay: MIC by two-fold dilution method
Method: (§1) The antibacterial activity of LEAP-2 from Erythroculter ilishaeformis (having the amino acid sequence as shown in SEQ ID NO: 1) against fish pathogens was tested by a two-fold dilution method. […] Aeromonas sobria, Aeromonas hydrophila, Vibrio harveyi, Vibrio parahaemolyticus, Vibrio anguillarum, Vibrio vulnificus, Vibrio splendidus and Vibrio cholerae were cultured in a nutrient broth medium to the logarithmic phase, and then diluted with fresh nutrient broth medium to 10^5 CFU/mL. Then, 50 μL of diluted bacterial solution was added to each well of the 96-well plate containing the prepared two-fold dilution of LEAP-2 from Erythroculter ilishaeformis. After culturing at 37° C. for 18 hours, the minimal inhibitory concentration (MIC) was measured.

[1] = test system: Aeromonas hydrophila (penicillin-resistant strain); assay: Kinetic analysis of antibacterial action (CFU counts over time); conditions: for Number of bacteria co-cultured with sample: LEAP-2 5×MIC 93.75 μg/mL
Method: Aeromonas hydrophila (penicillin-resistant strain) was cultured to the logarithmic phase and diluted with fresh nutrient broth medium to 10^5 CFU/mL. […] At each time point, 50 μL of bacterial solution was taken and diluted 1000 times with nutrient broth medium. Then 50 μL of the dilution was spread on a nutrient broth agarose plate. After culturing at 37° C. for 12 hours, the CFU was calculated.

V. parahaemolyticus = assay: Checkerboard test for synergy of LEAP-2 and ampicillin; conditions: Vibrio parahaemolyticus; for MIC used in combination: ampicillin and LEAP-2 used in combination
Method: (§2) 50 μL was added to each well, and uniformly mixed. […] 100 μL of bacterial solution was added to each well.

V. harveyi = assay: as above; conditions: Vibrio harveyi; for MIC used in combination: ampicillin and LEAP-2 used in combination
Method: as §2

Vibrio harveyi = assay: microbe, parasite or virus in culture
Method: as §1

Aeromonas sobria = assay: microbe, parasite or virus in culture
Method: as §1

Vibrio splendidus = assay: microbe, parasite or virus in culture
Method: as §1

Aeromonas hydrophila = assay: microbe, parasite or virus in culture
Method: as §1

Vibrio anguillarum = assay: microbe, parasite or virus in culture
Method: as §1

Vibrio vulnificus = assay: microbe, parasite or virus in culture
Method: as §1

Vibrio parahaemolyticus = assay: microbe, parasite or virus in culture
Method: as §1

## CC1(C)S[C@@H]2[C@H](NC(=O)[C@H](N)c3ccccc3)C(=O)N2[C@H]1C(=O)O [Ampicillin]
Vibrio cholerae; 37° C., 18 hours, average of three experiments
  MIC: >200 µg/mL
Vibrio cholerae; 18 h
  MIC: > 200 µg/mL
[1]; 0 min, ampicillin 1 mg/mL
  Number of bacteria co-cultured with sample: 67 ± 7.5 ×10^3, CFUs/mL
[1]; 10 min, ampicillin 1 mg/mL
  Number of bacteria co-cultured with sample: 69 ± 8.1 ×10^3, CFUs/mL
[1]; 20 min, ampicillin 1 mg/mL
  Number of bacteria co-cultured with sample: 70 ± 7.2 ×10^3, CFUs/mL
[1]; 30 min, ampicillin 1 mg/mL
  Number of bacteria co-cultured with sample: 72 ± 6.9 ×10^3, CFUs/mL
[1]; 45 min, ampicillin 1 mg/mL
  Number of bacteria co-cultured with sample: 85 ± 6.9 ×10^3, CFUs/mL
[1]; 90 min, ampicillin 1 mg/mL
  Number of bacteria co-cultured with sample: 197 ± 12.6 ×10^3, CFUs/mL
[1]; 120 min, ampicillin 1 mg/mL
  Number of bacteria co-cultured with sample: 378 ± 41.5 ×10^3, CFUs/mL
[1]; 180 min, ampicillin 1 mg/mL
  Number of bacteria co-cultured with sample: 961 ± 87.3 ×10^3, CFUs/mL
[1]; ampicillin 1 mg/mL, 2862.0 μM, 180 minutes
  CFU of Aeromonas hydrophila after 180 minutes of incubation: 9.6×10^5 CFUs/mL
[1]; ampicillin 1 mg/mL, 2862.0 μM, before incubation
  CFU of Aeromonas hydrophila at start: 6.7×10^4 CFUs/mL
V. parahaemolyticus; read-out: MIC used alone
  MIC: 18.8 µg/mL
V. parahaemolyticus; MIC in combination/MIC alone
  FIC: 0.25
V. parahaemolyticus
  MIC used in combination: 4.69 µg/mL
V. harveyi; read-out: MIC used alone
  MIC: 37.5 µg/mL
V. harveyi
  MIC used in combination: 4.69 µg/mL
Vibrio harveyi; Vibrio harveyi, 37° C., 18 hours, average of three experiments, read-out: MIC
  MIC: 37.5 µg/mL (≈ 107 µM)
Aeromonas sobria; Aeromonas sobria, 37° C., 18 hours, average of three experiments
  MIC: >200 µg/mL
Aeromonas sobria; Aeromonas sobria, 37° C., 18 hours, average of three experiments, read-out: MIC
  MIC: > 200 µg/mL
Vibrio splendidus; Vibrio splendidus, 37° C., 18 hours, average of three experiments
  MIC: >200 µg/mL
Vibrio splendidus; Vibrio splendidus, 37° C., 18 hours, average of three experiments, read-out: MIC
  MIC: > 200 µg/mL
Aeromonas hydrophila; Aeromonas hydrophila, 37° C., 18 hours, average of three experiments
  MIC: >200 µg/mL
Aeromonas hydrophila; Aeromonas hydrophila, 37° C., 18 hours, average of three experiments, read-out: MIC
  MIC: > 200 µg/mL
Vibrio anguillarum; Vibrio anguillarum, 37° C., 18 hours, average of three experiments
  MIC: >200 µg/mL
Vibrio anguillarum; Vibrio anguillarum, 37° C., 18 hours, average of three experiments, read-out: MIC
  MIC: > 200 µg/mL
Vibrio vulnificus; Vibrio vulnificus, 37° C., 18 hours, average of three experiments
  MIC: >200 µg/mL
Vibrio vulnificus; Vibrio vulnificus, 37° C., 18 hours, average of three experiments, read-out: MIC
  MIC: > 200 µg/mL
Vibrio parahaemolyticus; Vibrio parahaemolyticus, 37° C., 18 hours, average of three experiments, read-out: MIC
  MIC: 18.8 µg/mL (≈ 53.7 µM)

## MTPLWRIMLLFKPHALCQNNYACSTGLCRYGHCSALQTILS (disulfide 17-28, 23-33) [LEAP-2]
Vibrio cholerae; converted from μg/mL
  MIC (molar, in brackets): (8.1 μM)
[1]; 0 min, ampicillin 1 mg/mL
  Number of bacteria co-cultured with sample: 65 ± 5.3 ×10^3, CFUs/mL
[1]; 5×MIC, i.e., 20.2 μM
  time to kill all bacteria: ≤ 60 min
[1]; 10 min, ampicillin 1 mg/mL
  Number of bacteria co-cultured with sample: 59 ± 7.4 ×10^3, CFUs/mL
[1]; 20 min, ampicillin 1 mg/mL
  Number of bacteria co-cultured with sample: 40 ± 8.4 ×10^3, CFUs/mL
[1]; 30 min, ampicillin 1 mg/mL
  Number of bacteria co-cultured with sample: 28 ± 5.9 ×10^3, CFUs/mL
[1]; 45 min, ampicillin 1 mg/mL
  Number of bacteria co-cultured with sample: 11 ± 3.5 ×10^3, CFUs/mL
[1]; 60 min, ampicillin 1 mg/mL
  Number of bacteria co-cultured with sample: 0 ×10^3, CFUs/mL
[1]; 90 min, ampicillin 1 mg/mL
  Number of bacteria co-cultured with sample: 0 ×10^3, CFUs/mL
[1]; 120 min, ampicillin 1 mg/mL
  Number of bacteria co-cultured with sample: 0 ×10^3, CFUs/mL
[1]; 180 min, ampicillin 1 mg/mL
  Number of bacteria co-cultured with sample: 0 ×10^3, CFUs/mL
V. parahaemolyticus
  MIC used in combination: 18.75 µg/mL
V. harveyi
  MIC used in combination: 18.75 µg/mL
Vibrio harveyi; 18 h
  MIC: 75 µg/mL
Vibrio harveyi; Vibrio harveyi, converted from μg/mL
  MIC (molar, in brackets): (16.1 μM)
Aeromonas sobria; 18 h
  MIC: 75 µg/mL
Aeromonas sobria; Aeromonas sobria, converted from μg/mL
  MIC (molar, in brackets): (16.1 μM)
Vibrio splendidus; 18 h
  MIC: 150 µg/mL
Vibrio splendidus; Vibrio splendidus, converted from μg/mL
  MIC (molar, in brackets): (32.2 μM)
Aeromonas hydrophila; 18 h
  MIC: 18.75 µg/mL
Aeromonas hydrophila; Aeromonas hydrophila, converted from μg/mL
  MIC (molar, in brackets): (4.0 μM)
Vibrio anguillarum; 18 h
  MIC: 150 µg/mL
Vibrio anguillarum; Vibrio anguillarum, converted from μg/mL
  MIC (molar, in brackets): (32.2 μM)
Vibrio vulnificus; 18 h
  MIC: 37.5 µg/mL
Vibrio vulnificus; Vibrio vulnificus, converted from μg/mL
  MIC (molar, in brackets): (8.1 μM)
Vibrio parahaemolyticus; 18 h
  MIC: 75 µg/mL
Vibrio parahaemolyticus; Vibrio parahaemolyticus, converted from μg/mL
  MIC (molar, in brackets): (16.1 μM)
